The record followed here is publication PMC9164017 (ACS nano, 2021).

In one test the target is MeV F (Measles virus, UniProt Q786F3). Format: cell-based. The conditions noted are these: with or without 3g, coincubation or sequential incubation; Figure S17.
The target of a further test is MeV F (S262R) (Measles virus, UniProt Q786F3, S262R). The format is cell-based. The conditions noted are these: 1 μM, 60 min 37 °C, then 10 mM zanamivir; triplicate experiments.

For `N#Cc1cccc(NC(=O)Cc2ccccc2)c1` [3g, N-(3-Cyanophenyl)-2-phenylacetamide], the “colocalization of [FIP–HRC]2–PEG11 with F” value at MeV F is “colocalization is disrupted”. Further, the “step of entry at which the compound acts (RBCs released, retained or fused)” value on MeV F (S262R) is “reversibly bound RBC”.
